According to patent EP0565377B1, “Therapeutic agents for use in the treatment of Parkinson's Disease” (Kyowa Hakko Kogyo Co., Ltd., priority 1992, dated 1993):

Columns and labels:
[1] = tested on: Parkinson's Disease Model in Mouse; assay: Effect on locomotor activity of Parkinson's disease model in mouse (MPTP-treated mice, Automex-II horizontal activity); format: in vivo, male C57BL/6 mice
Description: 1-Methyl-4-phenyl-1,2,3,6-tetrahydropyridine (MPTP) causes symptoms of Parkinson's disease in humans [Science, 219, 979 (1983)]. It is reported that an experimental Parkinson's disease model was obtained by administering MPTP to mice [Science, 224, 1451 (1984)]. If a compound is effective on the experimental Parkinson's disease model in mouse, the compound can be expected to have a therapeutic effect on Parkinson's disease.
The experiment was performed by using several groups of 7-weeks-old male C57BL/6 mice (weighing 20 to 21 g, Japan SLC), each group consisting of 8 mice. MPTP (Aldrich Chemical Co., Inc.) dissolved in a physiological saline solution (Otsuka Pharmaceutical Co., Ltd.) was intraperitoneally administered to each mouse once a day for five consecutive days at a dose of 30 mg/kg. A test compound was suspended in injectable distilled water (Otsuka Phamaceutical Co., Ltd.) containing Tween 80 [polyoxyethylene (20) sorbitan monooleate]. L-DOPA (Kyowa Hakko Kogyo Co., Ltd.) was suspended in 0.3% CMC (sodium carboxylmethylcellulose). Thirty minutes after the final MPTP administration, the test compound suspensions and the control suspension [injectable distilled water (Otsuka Pharmaceutical Co., Ltd.) containing Tween 80] containing no test compound were orally administered to separate groups of the mice (0.1 ml per 10 g of body weight). The amount of active movements (horizontal activity) of each mouse was measured by using Automex-II (Columbus Instruments International Corp.) for the period of 30 minutes starting 30 minutes after the administration of the test compound. The effect of the compounds was evaluated by comparing the average counts of the active movements of the test compound-administered groups with those of the control groups. A significant difference test was performed by using Student's t-test.

[2] = tested on: Haloperidol-Induced Catalepsy; assay: Effect on haloperidol-induced catalepsy; format: in vivo, male ddY mice; conditions: Table 4-1, test compound 10 mg/kg orally; for inhibition in vivo at 10 mg/kg: Mus musculus, po, 1 h, rate of decrease in total score based on control group, read-out: Remission Rate (%); for Number of the Animals Showing Remission: of 5 mice, catalepsy score not more than 4 points; for Total Score: total catalepsy score of 5 mice (25 points at the full), 0.3% CMC control 25
Description: The experiment was performed by using several groups of 5-weeks-old male ddY mice (weighing 22 to 24 g, Japan SLC), each group consisting of 5 mice. Haloperidol (Janssen Pharmaceutica) suspended in 0.3% CMC was intraperitoneally administered to each mouse at a dose of 1.0 mg/kg. Test compounds were suspended in 0.3% CMC or in injectable distilled water (Otsuka Pharmaceutical Co., Ltd.) containing Tween 80. L-DOPA (Kyowa Hakko Kogyo Co., Ltd.) and benserazide hydrochloride (Kyowa Hakko Kogyo Co., Ltd.) were suspended in 0.3% CMC. One hour after the haloperidol administration, the test compound suspensions and the control suspension [0.3% CMC or injectable distilled water (Otsuka Pharmaceutical Co., Ltd.) containing Tween 80] containing no test compound were orally administered to separate groups of the mice (0.1 ml per 10 g of body weight). One hour after the administration of the test compound, the forelimbs of each mouse and subsequently the hindlimbs of the same mouse were placed on a 4.5 cm-high, 1.0 cm-wide bar and catalepsy was estimated. All of the test compounds were orally administered at a dose of 10 mg/kg, and L-DOPA (100 mg/kg) and benserazide (25 mg/kg) were intraperitoneally administered together as a control experiment. The catalepsy score and the standard of judgment are shown below.
The effect of the compounds was evaluated by the total of the catalepsy scores of five mice in each group (25 points at the full). The groups wherein the total score was not more than 20 points were estimated to be effective. The number of the animals showing remission against catalepsy is the number of the mice for which the catalepsy score was not more than 4 points.

dd-strain male mice = assay: Acute toxicity test (minimum lethal dose, oral); format: in vivo; conditions: oral administration, mortality seven days after administration, three mice per group
Description: Test compounds were orally administered to groups of dd-strain male mice weighing 20±1 g, each group consisting of three mice. Seven days after the administration, minimum lethal dose (MLD) of each compound was determined by observing the mortality.

Compound | Amount of Active Movements (average count ± S.E.M) ([1]; Table 3-1, test compound 10 mg/kg orally, 30 min count starting 30 min after dosing, normal control 1875 ± 77.7, MPTP control 207 ± 85.5) [count] | inhibition in vivo at 10 mg/kg [2] [%] | Number of the Animals Showing Remission [2] | Total Score [2] [points] | MLD (dd-strain male mice) [mg/kg] | Amount of Active Movements (average count ± S.E.M) ([1]; Table 3-2, test compound 40 mg/kg orally, normal control 2185 ±156.2, MPTP control 38 ± 24.2) [count] | Amount of Active Movements (average count ± S.E.M) ([1]; Table 3-5, test compound 40 mg/kg orally, normal control 2252 ±210.1, MPTP control 18 ± 8.4) [count]
CCCn1c(=O)c2c(nc(/C=C/c3ccc(OC)c(OC)c3)n2C)n(CCC)c1=O [Compound 1, (E)-8-(3,4-dimethoxystyryl)-7-methyl-1,3-dipropylxanthine] | 628 ±174.5 | 48 | 5 | 13 | > 300 |  | 
CCCn1c(=O)c2c(nc(/C=C/c3ccccc3)n2C)n(CCC)c1=O [Compound 3, (E) -7-methyl-1,3-dipropyl-8-styrylxanthine] |  | 20 | 4 | 20 | > 300 | 228 ± 82.6 | 
C=CCn1c(=O)c2nc(/C=C/c3cc(OC)c(OC)c(OC)c3)[nH]c2n(CC=C)c1=O [Compound 11, (E)-1,3-diallyl-8-(3,4,5-trimethoxystyryl) xanthine] |  | 20 | 3 | 20 | > 300 |  | 20 ± 7.1
